Measured values: patent US20130122098A1, “Method and composition to improve absorption of therapeutic agents” (Bayer HealthCare LLC, priority 2011, published 2013)

Columns and labels:
[1] = Compatibility: degradation products of aspirin/carbonate blends by HPLC; assay type: physicochemical
Experimental: The degradation products of various combinations of aspirin and various carbonates were determined for different combinations of aspirin and different grades and sources of carbonates to evaluate the compatibility and stability. Milling for about fifteen minutes appeared to slightly induce the production of free salicylic acid (FSA), but not to a significant extent. […] The results are shown in Table 3 (all blend percentages are weight percentages obtained using High Performance Liquid Chromatography (HPLC))

[2] = Particle size of milled aspirin by laser diffraction (MS 2000 Hydro S); assay type: physicochemical
Experimental: Several techniques were evaluated to determine the preferred type of milling techniques for use with aspirin in accordance with the invention. All sizes were determined using Laser Diffraction on a model MS 2000 Hydro S machine. The “d50” value is the average particle size of the milled sample, and “d90” represents the average particle size of at least 90% of the particles in the milled sample. Airjet, bead, and ball mill techniques were selected as being the most preferred in the invention because of the reliability of the techniques and the particle sizes obtained. Bead milling is less preferred because of its higher relative cost. The precipitation method and crystal synthesis also yielded small particle sizes but particles prepared using these techniques tended to agglomerate.

[3] = Air Jet Mill using helium as gas jet

| SMILES | Acetyl Salicylic Salicylic Acid ASSA (%) [1] [%] | FSA (%) (free salicylic acid) [1] | Particle size of the milled aspirin, d90 ([2]; Air Jet Mill) [μm] | Particle size of the milled aspirin, d50 [2, 3] [μm] | Particle size of the milled aspirin, d90 [2, 3] [μm] | Particle size of the milled aspirin, d50 ([2]; Crystal Synthesis, no agglomeration) | Particle size of the milled aspirin, d50 ([2]; Crystal Synthesis, with agglomeration of milled particles) | Particle size of the milled aspirin, d50 ([2]; High energy Ball Mill) | Particle size of the milled aspirin, d50 ([2]; Planetary Ball Mill) | Particle size of the milled aspirin, d50 ([2]; Precipitation Method (Solution: Ethanol + 20% ASA with 10% PVP)) |
| --- | --- | --- | --- | --- | --- | --- | --- | --- | --- | --- |
| CC(=O)Oc1ccccc1C(=O)O [100% Aspirin-Milled 15 min] | 0.00 | 0.00 | – | – | – | – | – | – | – | – |
| CC(=O)Oc1ccccc1C(=O)O [aspirin] | – | – | < 10 | < 2.6 | < 6.6 | d50~30 μm and no agglomeration | d50~5 to 10 μm, with agglomeration of milled particles | d50~30-40 μm | d50~40 μm | d50~5 μm |
